Values quoted from earlier work as cited in patent US20110034521A1, “COMPOUNDS AND METHODS FOR TREATING ZINC MATRIX METALLOPROTEASE DEPENDENT DISEASES” (priority 2007, published 2011).

Legend:
[1] = Wojtowwicz-Praga et al. 1997
[2] = Sparano et al. 2004

Row | water solubility [1] | SMILES | toxicity [2]
1 | poor water solubility | CNC(=O)[C@H](Cc1ccccc1)NC(=O)[C@H](CC(C)C)[C@H](CSc1cccs1)C(=O)NO [Batismastat] | 
2 |  | CNC(=O)[C@@H](NC(=O)[C@H](CC(C)C)[C@H](O)C(=O)NO)C(C)(C)C [Marimastat] | musculoskeletal toxicity
